# Where two headings read alike, the source gives them in different places.
# Experiment: log P determination by HPLC on reversed-phase columns (C 18), analogously to OECD Guideline 117
# Assay type: physicochemical
# Settings: for logP (HCOOH): LC-MS in the acidic range, pH 2.7, 0.1% aqueous formic acid / acetonitrile; for logP (HCOOH) / logP (neutral): HPLC reversed-phase C 18; for logP (neutral): LC-MS in the neutral range, pH 7.8, 0.001 molar aqueous ammonium hydrogencarbonate / acetonitrile
# Description: The log P values were determined analogously to OECD Guideline 117 (EC Directive 92/69/EEC) by HPLC (high-performance liquid chromatography) using reversed-phase columns (C 18), by the following methods:
# [a] The LC-MS determination in the acidic range was effected at pH 2.7 with 0.1% aqueous formic acid and acetonitrile (contains 0.1% formic acid) as eluents; linear gradient from 10% acetonitrile to 95% acetonitrile. log P^[a] is also referred to as log P(HCOOH). [b] LC-MS determination in the neutral range was effected at pH 7.8 with 0.001 molar aqueous ammonium hydrogencarbonate solution and acetonitrile as eluents; linear gradient from 10% acetonitrile to 95% acetonitrile. log P^[…] is also referred to as log P(neutral).
# [1] = acidic range, pH 2.7, 0.1% aqueous formic acid and acetonitrile, read-out: log P[a] / log P(HCOOH)
# [2] = reversed-phase C18 HPLC column, acidic range, pH 2.7, 0.1% aqueous formic acid and acetonitrile, read-out: log P[a] / log P(HCOOH)
# [3] = reversed-phase C18 HPLC column, neutral range, pH 7.8, 0.001 molar aqueous ammonium hydrogencarbonate and acetonitrile, read-out: log P[b] / log P(neutral)
Compound,chromatographic logP [2],chromatographic logP [3],other results
"C=CCOC(=O)Nc1cc(SCC(F)(F)F)c(C)cc1F [Allyl N-[2-fluoro-4-methyl-5-(2,2,2-trifluoroethylsulfanyl)phenyl]carbamate]",–,–,chromatographic logP [1]: 3.59
"COc1n[nH]c(=O)n1C1CC1 [drawing 121 R1=CH3 R10=cyclopropyl, 4-cyclopropyl-5-methoxy-2,4-dihydro-3H-1,2,4-triazol-3-one]",0.27,0.31,–
Cc1cc(F)c(-n2c(=O)n(C3CC3)c(=O)n2C)cc1SCC(F)(F)F [Example 128],–,–,logP (HCOOH): 3.49; logP (neutral): 3.45
"C=CCn1c(OC)n[nH]c1=O [drawing 121 R1=CH3 R10=CH2CH═CH2, 4-allyl-5-methoxy-2,4-dihydro-3H-1,2,4-triazol-3-one]",0.45,0.47,–
"OB(O)c1ccc(Cl)c(SCC(F)(F)F)c1 [VIIIa-3, {4-Chloro-3-[(2,2,2-trifluoroethyl)sulfanyl]phenyl}boronic acid]",2.4,2.41,–
CCC(C)n1c(=O)n(C2CC2)c(=O)n1-c1cc([S+]([O-])CC(F)(F)F)c(C)cc1F (stereo not drawn) [Example 75],–,–,logP (HCOOH): 2.73; logP (neutral): 2.68
"CCC(C)n1[nH]c(=O)n(C2CC2)c1=O (stereo not drawn) [drawing 120 R1=CH(CH3)CH2CH3 R10=cyclopropyl, 1-sec-butyl-4-cyclopropyl-1,2,4-triazolidine-3,5-dione]",0.82,–,–
CCC(C)n1c(=O)n(C2CC2)c(=O)n1-c1cc(SCC(F)(F)F)c(C)cc1F (stereo not drawn) [Example 73],–,–,logP (HCOOH): 3.86; logP (neutral): 3.72
"CCn1c(=O)n(-c2ccccc2)c(=O)n1-c1cc([S+]([O-])CC(F)(F)F)c(C)cc1F (stereo not drawn) [Example 88, 1-Ethyl-2-{2-fluoro-4-methyl-5-[(2,2,2-trifluoroethyl)sulfinyl]phenyl}-4-phenyl-1,2,4-triazolidine-3,5-dione]",2.71,2.66,–
"CCn1[nH]c(=O)n(-c2ccccc2)c1=O [1-Ethyl-4-phenyl-1,2,4-triazolidine-3,5-dione]",0.91,–,–
"Cc1cc(F)c(B2OC(C)(C)C(C)(C)O2)cc1SCC(F)(F)F [2-{2-Fluoro-4-methyl-5-[(2,2,2-trifluoroethyl)sulfanyl]phenyl}-4,4,5,5-tetramethyl-1,3,2-dioxaborolane]",4.91,4.81,–
Cn1c(=O)n(C2CC2)c(=O)n1-c1cc(SCC(F)(F)F)c(F)cc1F [Example 71],–,–,logP (HCOOH): 2.67; logP (neutral): 2.62
"Cc1cc(F)c(-n2c(=S)n(C3CC3)c(=O)n2C)cc1SCC(F)(F)F [4-cyclopropyl-1-{2-fluoro-4-methyl-5-[(2,2,2-trifluoroethyl)sulfanyl]phenyl}-2-methyl-5-thioxo-1,2,4-triazolidin-3-one]",3.24,3.18,–
"COc1ccc(B(O)O)cc1SCC(F)(F)F [VIIIa-8, {4-Methoxy-3-[(2,2,2-trifluoroethyl)sulfanyl]phenyl}boronic acid]",1.94,1.93,–
"Cc1cc(F)c(NCC(C)O)cc1SCC(F)(F)F (stereo not drawn) [1-[2-Fluoro-4-methyl-5-(2,2,2-trifluoroethylsulfanyl)aniline]propan-2-ol]",3.01,–,–
"Cn1c(OCC2CC2)n[nH]c1=O [drawing 121 R1=CH2-cyclopropyl R10=CH3, 5-(cyclopropylmethoxy)-4-methyl-2,4-dihydro-3H-1,2,4-triazol-3-one]",0.84,0.88,–
"CCn1[nH]c(=O)n(C(C)C)c1=O [drawing 120 R1=CH2CH3 R10=CH(CH3)2, 1-ethyl-4-isopropyl-1,2,4-triazolidine-3,5-dione]",0.62,–,–
"Cn1c(=O)[nH]n(C2CCCC2)c1=O [drawing 120 R1=cyclopentyl R10=CH3, 1-cyclopentyl-4-methyl-1,2,4-triazolidine-3,5-dione]",0.78,–,–
"Cc1cc(C)c([S+]([O-])CC(F)(F)F)cc1N1CCNC1=O (stereo not drawn) [Example 4, 1-{2,4-Dimethyl-5-[(2,2,2-trifluoroethyl)sulfinyl]phenyl}imidazolidin-2-one]",1.51,1.52,–
"CC1(C)OB(c2ccc(Cl)c(SCC(F)(F)F)c2)OC1(C)C [2-{4-Chloro-3-[(2,2,2-trifluoroethyl)sulfanyl]phenyl}-4,4,5,5-tetramethyl-1,3,2-dioxaborolane]",5.27,5.16,–
Cc1cc(F)c(-n2c(=O)n(C3CC3)c(=O)n2C(C)(C)C)cc1SCC(F)(F)F [Example 144],–,–,logP (HCOOH): 4.08; logP (neutral): 4.07

Compound,chromatographic logP [2],chromatographic logP [3],other results
"O=c1[nH]n(Cc2ccccc2)c(=O)n1C1CC1 [drawing 120 R1=benzyl R10=cyclopropyl, 1-benzyl-4-cyclopropyl-1,2,4-triazolidine-3,5-dione]",1.21,–,–
"Cc1cc(F)c(NC(=S)NCC(F)(F)F)cc1SCC(F)(F)F [1-{2-Fluoro-4-methyl-5-[(2,2,2-trifluoroethyl)sulfanyl]phenyl}-3-(2,2,2-trifluoroethyl)thiourea]",3.32,3.24,–
Cc1cc(F)c(-n2c(=O)n(C)c(=O)n2C2C=CCCC2)cc1[S+]([O-])CC(F)(F)F (stereo not drawn) [Example 96],–,–,logP (HCOOH): 2.66; logP (neutral): 2.61
CCn1c(=O)n(CC(C)C)n(-c2cc(SCC(F)(F)F)c(C)cc2F)c1=O [Example 148],–,–,logP (HCOOH): 3.82; logP (neutral): 3.78
"O=[N+]([O-])c1ccc(Cl)c(SSc2cc([N+](=O)[O-])ccc2Cl)c1 [XIX-3, 1,1′-Disulfanediylbis(2-chloro-5-nitrobenzene)]",–,–,"chromatographic logP [1]: 3.31; chromatographic logP (neutral range, pH 7.8, 0.001 molar aqueous ammonium hydrogencarbonate and acetonitrile, read-out: log P[b] / log P(neutral)): 3.35"
"CCn1[nH]c(=O)n(C(C)(C)C)c1=O [drawing 120 R1=CH2CH3 R10=C(CH3)3, 4-tert-butyl-1-ethyl-1,2,4-triazolidine-3,5-dione]",1.15,–,–
"Cc1cc(F)c(N2C(=O)OCC2C)cc1[S+]([O-])CC(F)(F)F (stereo not drawn) [Example 107, 3-[2-Fluoro-4-methyl-5-(2,2,2-trifluoroethylsulfinyl)phenyl]-4-methyloxazolidin-2-one]",1.79,–,–
"Fc1cc(F)c(SCC(F)(F)F)cc1Br [VIIa-15, 1-Bromo-2,4-difluoro-5-[(2,2,2-trifluoroethyl)sulfanyl]benzene]",3.89,3.86,–
"Cc1cc(F)c(-n2c(=O)n(C3CC3)c(=O)n2C)cc1[S+]([O-])CC(F)(F)F (single isomer, unassigned) [Example 197]",–,–,logP (HCOOH): 1.97; logP (neutral): 1.89
"Cc1cc(C)c(B2OC(C)(C)C(C)(C)O2)cc1SCC(F)(F)F [2-{2,4-Dimethyl-5-[(2,2,2-trifluoroethyl)sulfanyl]phenyl}-4,4,5,5-tetramethyl-1,3,2-dioxaborolane]",5.75,5.64,–
"[O-][S+](CC(F)(F)F)c1cc(B(O)O)ccc1Cl (stereo not drawn) [VIIIb-3, {4-Chloro-3-[(2,2,2-trifluoroethyl)sulfinyl]phenyl}boronic acid]",1.74,1.68,–
"Cc1cc(C)c(B(O)O)cc1SCC(F)(F)F [VIIIa-11, {2,4-Dimethyl-5-[(2,2,2-trifluoroethyl)sulfanyl]phenyl}boronic acid]",2.58,2.57,–
"Fc1cc(Br)c(SCC(F)(F)F)cc1Br [VIIa-14, 1,4-Dibromo-2-fluoro-5-[(2,2,2-trifluoroethyl)sulfanyl]benzene]",4.39,4.36,–
"Cc1cc(C)c([S+]([O-])CC(F)(F)F)cc1B(O)O (stereo not drawn) [VIIIb-11, {2,4-Dimethyl-5-[(2,2,2-trifluoroethyl)sulfinyl]phenyl}boronic acid]",1.61,1.61,–
"Cc1cc(F)c(NC(=O)C(C)(C)O)cc1SCC(F)(F)F [N-[2-Fluoro-4-methyl-5-(2,2,2-trifluoroethylsulfanyl)phenyl]-2-hydroxy-2-methylpropanamide]",2.81,–,–
Cc1cc(F)c(-n2c(=O)n(C)c(=O)n2C2CCCC2)cc1SCC(F)(F)F [Example 86],–,–,logP (HCOOH): 3.75; logP (neutral): 3.67
"CC(C)Cn1[nH]c(=O)n(C2CC2)c1=O [drawing 120 R1=CH2CH(CH3)2 R10=cyclopropyl, 4-cyclopropyl-1-isobutyl-1,2,4-triazolidine-3,5-dione]",0.94,–,–
"Cn1c(OCc2ccccc2Cl)n[nH]c1=O [drawing 121 R1=2-chlorobenzyl R10=CH3, 5-[(2-chlorobenzyl)oxy]-4-methyl-2,4-dihydro-3H-1,2,4-triazol-3-one]",1.66,1.63,–
Cc1cc(F)c(-n2c(=O)n(C)c(=O)n2-c2cc(F)c(C#N)cc2F)cc1SCC(F)(F)F [Example 78],–,–,logP (HCOOH): 3.40; logP (neutral): 3.29
"OB(O)c1cc(SCC(F)(F)F)c(Cl)cc1Cl [VIIIa-6, {2,4-Dichloro-5-[(2,2,2-trifluoroethyl)sulfanyl]phenyl}boronic acid]",2.61,2.52,–
Cc1cc(F)c(N2C(=O)C(=O)N(C3CC3)C2=O)cc1SCC(F)(F)F [Example 102],–,–,logP (HCOOH): 3.24

# Reference: patent US9981928B2, “Aryl sulfide derivatives and aryl sulfoxide derivatives as acaricides and insecticides” (BAYER CROPSCIENCE AKTIENGESELLSCHAFT, priority 2013, dated 2018)
